Publication PMC8907714, “Antimicrobial property of Pichia pastoris‐derived natto peptide against foodborne bacteria and its preservative potential to maintain pork quality during refrigerated storage” (Food Science & Nutrition, 2022)

What was measured:
[1] = system: total bacteria, Staphylococcus spp., Escherichia spp., and Pseudomonas spp.; assay: Microbial growth in pork during refrigerated storage, colony count; settings: pork soaked 20 min, natto peptide 30, 60, 90 μg/ml, nisin 50 μg/ml, butyl paraben 100 μg/ml, 4°C, 8‐day storage
Protocol: Fresh‐pork legs were bought from a local butcher (Binzhou, China) 24 h postmortem. The connective tissue and fat of the pork were removed before cutting into even slices (5 ± 0.1 g). Afterwards, the slices were soaked in 0, 30, 60, and 90 μg/ml of natto peptide for 20 min. Then, the slices were drained and placed in sterilized polyvinyl chloride trays, sealed using a polyethylene film, and stored at 4°C in a refrigerator for 8 days. Meanwhile, 50 μg/ml of nisin and 100 μg/ml of butyl paraben were used as positive controls to analyze the aseptic effects of natto peptide, including microbial growth, TVB‐N, lipid oxidation, pH, drip loss, and sensory quality during storage.
The microbial growth of pork was determined by colony count, as described previously (Meng et al., [2021]). In brief, after the pork sample (5 g) was homogenized with 0.9% sterilized saline buffer (25 ml), 100 μl of the 10× diluent was spread on plate‐count agar, mannitol‐salt agar, violet red bile agar, and centrimide (CN) agar, and incubated at a suitable temperature for 48 h. All experiments were performed three times.

E. coli O157 = assay: Time‐killing curve; assay type: cell-based, Escherichia coli; settings: gentamicin positive control, concentration not given
Protocol: Time‐killing curves were obtained as described previously to evaluate the bactericidal rates of natto peptide (Dong & Sun, [2021]). Concisely, the natto peptide at final concentrations of 1×, 2×, and 4× MICs was incubated with E. coli O157, which was cultured to midlog phase. Then, the culture samples were harvested at different time intervals for colony counting. PBS buffer and gentamicin were used as negative and positive controls. All the experiments were performed in triplicate.

Row | Compound | bacterial growth in pork compared with control [1] | time until bacteria were completely killed (E. coli O157) [h]
1 | Nisin | moderate inhibitory effect | 
2 | CCCCOC(=O)c1ccc(O)cc1 [Butyl paraben] | effective inhibition function | 
3 | CNC(C)C1CCC(N)C(OC2C(N)CC(N)C(OC3OCC(C)(O)C(NC)C3O)C2O)O1 (stereo not drawn) [gentamicin] |  | 1.5
